Assay results: patent publication US20080226718A1, “Indole and Azaindole Derivatives For the Treatment of Inflammatory and Autoimmune Diseases” (Brane Discovery S.r.l, priority 2005, published 2008)

Key:
[1] = test system: experimental autoimmune encephalomyelitis (EAE); assay: EAE, preventive model; format: in vivo
Procedure: Female SJL/J mice, 6-8 weeks of age, were obtained from Harlan-Nossan Italy. Mice were immunized s.c. with 200 μg PLP139-151 in 0.1 ml emulsion consisting of equal volumes of PBS and CFA (Difco Laboratories, Detroit, Mich.) and containing 6 mg/ml of Mycobacterium tuberculosis H37Ra (Difco). To induce a severe disease, in some experiments 400 ng Pertussis toxin (PTX) was administered i.v. at days 0 and 2 (Constantin, G. et al. Eur. J. Immunol., 28, 3523-3529, 1998). Mice were scored for EAE according to the following scale: 0, no disease; 1, tail weakness; 2, paraparesis; 3, paraplegia; 4, paraplegia with forelimb weakness or paralysis; 5, moribund or dead animals (Brocke S. et al., Autoimmune disease models. Academic Press, San Diego, 1-4, 1994).
Test compound was administered daily at 60 mg/kg i.p. for 17 days starting from the day of immunization. Control animals received vehicle (DMSO).
The effects of compound of Example 1 (PCT/EP2005/051908) were determined on EAE (experimental autoimmune encephalomyelitis), the animal model of multiple sclerosis (Tables 4 and 5). SJL mice were immunized with PLP139-151 peptide from cerebral proteolipid. The disease model has relapses and remission periods, as described in relapsing-remitting MS, the most frequent form of human disease accounting for 85% of all MS patients.
In the preventive model (Table 4), mice received 60 mg/kg daily of Compound of Example 1 (PCT/EP2005/051908), intraperitoneally, for 17 days starting from the day of immunization. Control animals received vehicle (DMSO). Control animals developed disease with a mean day of onset of 13±1.5. Mean maximum clinical score in control animals was 2.7±0.3. All control mice that developed disease also presented clinical relapses.

[2] = test system: encephalitogenic lymphocytes; assay: Spontaneous adhesion of encephalitogenic T cells on purified ICAM-1; format: cell-based, SJL mice; details: Mus musculus, Lymphocyte, 1 h
Outline: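 Autoreactive T cells came from SJL mice immunized with PLP139-151. Cells were pretreated for 1 h with compound at 5-100 μM or DMSO vehicle, then tested for spontaneous adhesion to purified ICAM-1 or VCAM-1. Inhibition is given as percent of vehicle control (100%), mean ± S.D. of three-four experiments.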

NADPH-oxidase = assay: Respiratory burst (H2O2 assay), NADPH-oxidase activation in monocytes; format: cell-based; details: PMA 200 ng/ml; 10, 50, 100 μM; FIG. 1b
Procedure: NADPH-oxidase activation was measured as induction of H2O2 release (derived from dismutation of O2^−) triggered in PMNs and monocytes by PMA (200 ng/ml). Briefly, PMNs and monocytes were pretreated at 37° C. for 30-60 min with test compound at different concentrations, and stimulated with phorbol 12-myristate 13-acetate (PMA, 200 ng/ml) dissolved in 0.5 ml of a standard reaction mixture. Release of H2O2 was evaluated in real time at time points of 5 min by using a microplate fluorescence reader (Perkin-Elmer). Results are expressed as nmoles of H2O2 released over time by 10^6 cells. Shown are dose-response curves of inhibitory effect on H2O2 release over 60 min.

[3] = preventive, 60 mg/kg i.p. daily for 17 days from immunization

`COC(=O)c1[nH]c2cc(OC)c(OC)cc2c1-c1ccc(OC)cc1` [Example 1] was tested. Which “Visible toxicity (appearance of animals, macroscopic pathological analysis)” value ([1]; 60 mg/kg i.p. daily for 17 days) did it give?
The value was “neither the treatment caused any visible toxicity”.

And the “Development of clinical signs of disease, in words” value ([1]; preventive, 60 mg/kg i.p. daily for 17 days)?
Its value is “completely blocked”.

What about the Disease incidence [1, 3] of the same molecule?
The Disease incidence was 0/6.

What about the Mortality [1, 3] of the same molecule?
Its Mortality is 0/6.

What about the “Mean maximum clinical score” value ([1]; preventive, 60 mg/kg i.p. daily for 17 days from immunization, scale 0-5) of the same molecule?
Its value is 0.

What about the Clinical relapses ([1]; preventive, observation period of 61 days) of the same molecule?
The Clinical relapses was “no treated animals developed clinical relapses”.

What about the inhibition at 5 µM ([2]; [cpd] 5 μM, read-out: Inhibition of Spontaneous Adhesion in encephalitogenic lymphocytes (% of control/non-treated cells) ICAM-1) of the same molecule?
Its inhibition at 5 µM is 47%.

And the inhibition at 10 µM ([2]; [cpd] 10 μM, read-out: Inhibition of Spontaneous Adhesion in encephalitogenic lymphocytes (% of control/non-treated cells) ICAM-1 (converted))?
The inhibition at 10 µM was 65%.

What about the inhibition at 25 µM ([2]; [cpd] 25 μM, read-out: Inhibition of Spontaneous Adhesion in encephalitogenic lymphocytes (% of control/non-treated cells) ICAM-1 (converted)) of the same molecule?
The inhibition at 25 µM was 70%.

And the inhibition at 50 µM ([2]; [cpd] 50 μM, read-out: Inhibition of Spontaneous Adhesion in encephalitogenic lymphocytes (% of control/non-treated cells) ICAM-1 (converted))?
Its inhibition at 50 µM is 89%.

And the inhibition at 100 µM ([2]; [cpd] 100 μM, read-out: Inhibition of Spontaneous Adhesion in encephalitogenic lymphocytes (% of control/non-treated cells) ICAM-1 (converted))?
Its inhibition at 100 µM is 96%.

What about the “NADPH-oxidase activation (H2O2 release) in monocytes, in words” value (NADPH-oxidase) of the same molecule?
The value was “inhibits NADPH-oxidase activation”.
